Laboratory results as given in patent publication US12077503B2, “Substituted cyclic amides and their use as herbicides” (FMC CORPORATION, priority 2015, dated 2024).

Tests used:
Format in all cases: in vivo
[1] = system: barnyardgrass (Echinochloa crus-galli); test: Test B flooded paddy test; conditions: Echinochloa crus-galli, Flood, 250 g ai/ha; scale of 0 to 100 where 0 is no effect and 100 is complete control; read-out: Barnyardgrass plant response rating
Procedure, shortened: (§1)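 Evaluation by eye, against controls, occurred 13–15 d post-treatment in a greenhouse, using a 0 (no effect) to 100 (complete control) scale. Application was into the paddy water, 3 cm deep over the soil, on 2-leaf plants.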

[2] = system: ducksalad (Heteranthera limosa); test: Test B flooded paddy test; conditions: Heteranthera limosa, Flood, 250 g ai/ha; scale of 0 to 100 where 0 is no effect and 100 is complete control; read-out: Ducksalad plant response rating
Procedure, shortened: as §1

rice (Oryra sativa) = test: Test B flooded paddy test; conditions: Oryza sativa, Flood, 250 g ai/ha; scale of 0 to 100 where 0 is no effect and 100 is complete control; read-out: Rice plant response rating
Procedure, shortened: as §1

[3] = system: sedge, umbrella (small-flower umbrella sedge, Cyperus difformis); test: Test B flooded paddy test; conditions: Cyperus difformis, Flood, 250 g ai/ha; scale of 0 to 100 where 0 is no effect and 100 is complete control; read-out: Sedge, Umbrella plant response rating
Procedure, shortened: as §1

[4] = system: Galium (catchweed bedstraw, Galium aparine); test: Test A postemergence; conditions: Galium, post-emergence, 240 h, 125 g ai/ha, Postemergence; visual injury after approximately 10 d; 0 to 100 scale where 0 is no effect and 100 is complete control; read-out: Plant response rating, Galium
Procedure, shortened: (§2)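 Greenhouse, ~10 d after spray; visual injury vs untreated controls, 0 = no effect, 100 = complete control. Preemergence: directed soil spray over planted seeds. Postemergence: plants 2–10 cm, 1–2 leaf stage. Loam/sand blend. Compound in non-phytotoxic solvent with surfactant.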

[5] = system: barnyardgrass (Echinochloa crus-galli); test: Test A postemergence; conditions: Echinochloa crus-galli, post-emergence, 240 h, 125 g ai/ha, Postemergence; visual injury after approximately 10 d; 0 to 100 scale where 0 is no effect and 100 is complete control; read-out: Plant response rating, Barnyardgrass
Procedure, shortened: as §2

[6] = system: ryegrass, Italian (Italian ryegrass, Lolium multiflorum); test: Test A postemergence; conditions: Lolium multiflorum, post-emergence, 240 h, 125 g ai/ha, Postemergence; visual injury after approximately 10 d; 0 to 100 scale where 0 is no effect and 100 is complete control; read-out: Plant response rating, Ryegrass, Italian
Procedure, shortened: as §2

[7] = system: wheat (Triticum aestivum); test: Test A postemergence; conditions: Triticum aestivum, post-emergence, 240 h, 125 g ai/ha, Postemergence; visual injury after approximately 10 d; 0 to 100 scale where 0 is no effect and 100 is complete control; read-out: Plant response rating, Wheat
Procedure, shortened: as §2

[8] = system: giant foxtail (Setaria faberii); test: Test A postemergence; conditions: Setaria faberi, post-emergence, 240 h, 125 g ai/ha, Postemergence; visual injury after approximately 10 d; 0 to 100 scale where 0 is no effect and 100 is complete control; read-out: Plant response rating, Foxtail, Giant
Procedure, shortened: as §2

[9] = system: ragweed (common ragweed, Ambrosia elatior); test: Test A postemergence; conditions: Ambrosia artemisiifolia, post-emergence, 240 h, 125 g ai/ha, Postemergence; visual injury after approximately 10 d; 0 to 100 scale where 0 is no effect and 100 is complete control; read-out: Plant response rating, Ragweed
Procedure, shortened: as §2

corn (Zea mays) = test: Test A postemergence; conditions: Zea mays, post-emergence, 240 h, 125 g ai/ha, Postemergence; visual injury after approximately 10 d; 0 to 100 scale where 0 is no effect and 100 is complete control
Procedure, shortened: as §2

Kochia (Kochia scoparia) [10] = test: Test A postemergence; conditions: Bassia scoparia, post-emergence, 240 h, 125 g ai/ha, Postemergence; visual injury after approximately 10 d; 0 to 100 scale where 0 is no effect and 100 is complete control; read-out: Plant response rating, Kochia
Procedure, shortened: as §2

[11] = system: blackgrass (Alopecurus myosuroides); test: Test A postemergence; conditions: Alopecurus myosuroides, post-emergence, 240 h, 125 g ai/ha, Postemergence; visual injury after approximately 10 d; 0 to 100 scale where 0 is no effect and 100 is complete control; read-out: Plant response rating, Blackgrass
Procedure, shortened: as §2

[12] = system: pigweed (Amaranthus retroflexus); test: Test A postemergence; conditions: Amaranthus retroflexus, post-emergence, 240 h, 125 g ai/ha, Postemergence; visual injury after approximately 10 d; 0 to 100 scale where 0 is no effect and 100 is complete control; read-out: Plant response rating, Pigweed
Procedure, shortened: as §2

[13] = system: barnyardgrass (Echinochloa crus-galli); test: Test A preemergence; conditions: Echinochloa crus-galli, pre-emergence, 240 h; for pest or weed control at 125 g/ha: 125 g ai/ha, Preemergence, visual injury rating after approximately 10 d, read-out: Barnyardgrass plant response rating (0 to 100 scale, 0 is no effect, 100 is complete control); for pest or weed control at 500 g/ha: 500 g ai/ha, preemergence, visual injury rating about 10 d after treatment, 0 to 100 scale (0 no effect, 100 complete control), read-out: Barnyardgrass plant response rating
Procedure, shortened: as §2

[14] = system: ryegrass, Italian (Italian ryegrass, Lolium multiflorum); test: Test A preemergence; conditions: Lolium multiflorum, pre-emergence, 240 h; for pest or weed control at 125 g/ha: 125 g ai/ha, Preemergence, visual injury rating after approximately 10 d, read-out: Ryegrass, Italian plant response rating (0 to 100 scale, 0 is no effect, 100 is complete control); for pest or weed control at 500 g/ha: 500 g ai/ha, preemergence, visual injury rating about 10 d after treatment, 0 to 100 scale (0 no effect, 100 complete control), read-out: Ryegrass, Italian plant response rating
Procedure, shortened: as §2

[15] = system: giant foxtail (Setaria faberii); test: Test A preemergence; conditions: Setaria faberi, pre-emergence, 240 h; for pest or weed control at 125 g/ha: 125 g ai/ha, Preemergence, visual injury rating after approximately 10 d, read-out: Foxtail, Giant plant response rating (0 to 100 scale, 0 is no effect, 100 is complete control); for pest or weed control at 500 g/ha: 500 g ai/ha, preemergence, visual injury rating about 10 d after treatment, 0 to 100 scale (0 no effect, 100 complete control), read-out: Foxtail, Giant plant response rating
Procedure, shortened: as §2

[16] = system: ragweed (common ragweed, Ambrosia elatior); test: Test A preemergence; conditions: Ambrosia artemisiifolia, pre-emergence, 240 h; for pest or weed control at 125 g/ha: 125 g ai/ha, Preemergence, visual injury rating after approximately 10 d, read-out: Ragweed plant response rating (0 to 100 scale, 0 is no effect, 100 is complete control); for pest or weed control at 500 g/ha: 500 g ai/ha, preemergence, visual injury rating about 10 d after treatment, 0 to 100 scale (0 no effect, 100 complete control), read-out: Ragweed plant response rating
Procedure, shortened: as §2

Kochia (Kochia scoparia) [17] = test: Test A preemergence; conditions: Bassia scoparia, pre-emergence, 240 h; for pest or weed control at 125 g/ha: 125 g ai/ha, Preemergence, visual injury rating after approximately 10 d, read-out: Kochia plant response rating (0 to 100 scale, 0 is no effect, 100 is complete control); for pest or weed control at 500 g/ha: 500 g ai/ha, preemergence, visual injury rating about 10 d after treatment, 0 to 100 scale (0 no effect, 100 complete control), read-out: Kochia plant response rating
Procedure, shortened: as §2

[18] = system: pigweed (Amaranthus retroflexus); test: Test A preemergence; conditions: Amaranthus retroflexus, pre-emergence, 240 h; for pest or weed control at 125 g/ha: 125 g ai/ha, Preemergence, visual injury rating after approximately 10 d, read-out: Pigweed plant response rating (0 to 100 scale, 0 is no effect, 100 is complete control); for pest or weed control at 500 g/ha: 500 g ai/ha, preemergence, visual injury rating about 10 d after treatment, 0 to 100 scale (0 no effect, 100 complete control), read-out: Pigweed plant response rating

CC(C)COc1cccc([C@H]2CNC(=O)[C@@H]2C(=O)Nc2ccccc2F)c1 [Compound 964]
pest or weed control at 250 g/ha [1]: 0%
pest or weed control at 250 g/ha [2]: 75%
pest or weed control at 250 g/ha (rice (Oryra sativa)): 15%
pest or weed control at 250 g/ha [3]: 0%
pest or weed control at 125 g/ha [4]: 40%
pest or weed control at 125 g/ha [5]: 60%
pest or weed control at 125 g/ha [6]: 0%
plant injury at 125 g/ha [7]: 0%
pest or weed control at 125 g/ha [8]: 60%
pest or weed control at 125 g/ha [9]: 0%
Corn plant response rating (crop injury, 0 = no effect, 100 = complete kill) at 125 g/ha (corn (Zea mays)): 0%
pest or weed control at 125 g/ha (Kochia (Kochia scoparia) [10]): 0%
pest or weed control at 125 g/ha [11]: 0%
pest or weed control at 125 g/ha [12]: 0%
pest or weed control at 125 g/ha [13]: 90%
pest or weed control at 500 g/ha [13]: 90%
pest or weed control at 125 g/ha [14]: 0%
pest or weed control at 500 g/ha [14]: 30%
pest or weed control at 125 g/ha [15]: 90%
pest or weed control at 500 g/ha [15]: 90%
pest or weed control at 125 g/ha [16]: 0%
pest or weed control at 500 g/ha [16]: 0%
pest or weed control at 125 g/ha (Kochia (Kochia scoparia) [17]): 0%
pest or weed control at 500 g/ha (Kochia (Kochia scoparia) [17]): 20%
pest or weed control at 125 g/ha [18]: 0%
pest or weed control at 500 g/ha [18]: 0%

Cc1ccc(NC(=O)[C@H]2C(=O)N(C)C[C@@H]2c2cc(F)cc(F)c2)cc1 [Compound 967]
pest or weed control at 250 g/ha [1]: 0%
pest or weed control at 250 g/ha [2]: 35%
pest or weed control at 250 g/ha (rice (Oryra sativa)): 0%
pest or weed control at 250 g/ha [3]: 0%
pest or weed control at 125 g/ha [4]: 0%
pest or weed control at 125 g/ha [5]: 80%
pest or weed control at 125 g/ha [6]: 0%
plant injury at 125 g/ha [7]: 0%
pest or weed control at 125 g/ha [8]: 80%
pest or weed control at 125 g/ha [9]: 0%
Corn plant response rating (crop injury, 0 = no effect, 100 = complete kill) at 125 g/ha (corn (Zea mays)): 0%
pest or weed control at 125 g/ha (Kochia (Kochia scoparia) [10]): 0%
pest or weed control at 125 g/ha [11]: 0%
pest or weed control at 125 g/ha [12]: 0%
pest or weed control at 125 g/ha [13]: 80%
pest or weed control at 500 g/ha [13]: 90%
pest or weed control at 125 g/ha [14]: 0%
pest or weed control at 500 g/ha [14]: 0%
pest or weed control at 125 g/ha [15]: 80%
pest or weed control at 500 g/ha [15]: 90%
pest or weed control at 125 g/ha [16]: 0%
pest or weed control at 500 g/ha [16]: 0%
pest or weed control at 125 g/ha (Kochia (Kochia scoparia) [17]): 0%
pest or weed control at 500 g/ha (Kochia (Kochia scoparia) [17]): 0%
pest or weed control at 125 g/ha [18]: 0%
pest or weed control at 500 g/ha [18]: 0%
